Patent US20210046071A1, “TETRACYCLIC COMPOUNDS AND THEIR SALTS, COMPOSITIONS, AND METHODS FOR THEIR USE” (Senhwa Biosciences, Inc., priority 2019, published 2021)

Legend:
Assay type in all cases: cell-based
BRCA12 deficient cells = assay: Toxicity against BRCA12 deficient cells; settings: cell lines of different genetic backgrounds (colon, breast and ovary), mouse and human
[1] = system: multiple cancer cell lines; assay: Alamar Blue cell viability assay, multiple cancer cell lines; settings: Table 1
Procedure: (§1) The effect of Compound I on cell viability was assessed by Alamar Blue assay of metabolic activity in various cancer cell lines.

A375 = assay: Alamar Blue cell viability assay, A375; settings: Homo sapiens, A-375; A375, Melanoma
Procedure: as §1

NK92mi = assay: Alamar Blue cell viability assay, NK92mi; settings: Lymphoma
Procedure: as §1

COLO-205 = assay: Alamar Blue cell viability assay, COLO-205; settings: Homo sapiens; COLO-205, Colon
Procedure: as §1

A549 = assay: Alamar Blue cell viability assay, A549; settings: Homo sapiens; A549, Lung
Procedure: as §1

- EC50 (A375): 58 nM
- EC50 (COLO-205): 96 nM
- EC50 (A549): 4900 nM
SMILES: Cc1cnc(CNC(=O)c2c(=O)c3ccc(N4CCCN(C)CC4)nc3n3c2sc2ccccc23)cn1 [Compound I, 2-(4-Methyl-[1,4]diazepan-1-yl)-5-oxo-5H-7-thia-1,11b-diaza-benzo[c]fluorene-6-carboxylic acid (5-methyl-pyrazin-2-ylmethyl)-amide]
- Toxicity against BRCA12 deficient cells (BRCA12 deficient cells): specific toxicity
- Antiproliferative activity [1]: broad spectrum antiproliferative activity
- EC50 (NK92mi): 165 nM
